Experimental findings from US20170095565A1, “CHEMICALLY MODIFIED SMALL MOLECULES” (Nektar Therapeutics, priority 2003, published 2017) are described below.

The IC50 is the midpoint of a concentration-inhibition curve. As a reminder, the EC50 is the concentration giving half of the maximal effect. High values mean a less potent agent, low ones a more potent agent.

Data set [1] can be described thus: Solubility of tested compounds (Table 1).
Data set [2] has as its target Mu-opiate (Homo sapiens, UniProt P35372). As to conditions: read-out: IC50, Mu-opiate binding activity.
Data set [3] addresses μ-Opiate Receptors (Homo sapiens, UniProt P35372). The data set can be described thus: biochemical. Format: biochemical. The text has this:
In the table above, for each compound, the bioactivity is provided as a measure of the relative bioactivity of each of the various PEG conjugates in comparison to parent drug. The EC50 is the concentration of agonist that provokes a response halfway between the baseline and maximum response in a standard dose-response curve.

A short description of data set [4]: Oral bioavailability: plasma concentration after oral gavage. The class given is in vivo, Sprague Dawley rats. As to conditions: rats, PEGylated compounds normalized to 1 mg/kg dose. On the procedure:
Female Sprague Dawley® rats (150-200 g) were obtained from Harlan Labs. […] The animals were fasted overnight (day −1), but water was provided ad libitum.
On the morning of dosing (day 0), each rat was weighed and the cannulas flushed with heparin (1000 U/mL). With the aid of a feeding tube, the animals were then dosed orally (gavage) with aqueous formulations containing either the PEGylated or the free drug. The dose was determined on a mg/kg body weight basis. […] At specific time intervals (1, 2 and 4 hours), blood samples (approximately 1.0 mL) were removed through the cannula, placed in 1.5 mL centrifuge tubes containing 14 μL of heparin, mixed and centrifuged to separate the plasma. The plasma samples were frozen (<−70° C.) until assayed. The plasma samples were purified by a precipitation technique and the analyte extracted and assayed using a high performance liquid chromatography (LC) method with a mass selective detector (MSD). […] When appropriate, an internal standard was used in the analysis.

Data set [5] in a line: In situ brain perfusion, blood-brain barrier uptake. As to conditions: normalized to 5 μM dosing solution, 20 mL/min perfusion rate, 30 sec; listed as PEG7-Nal (α isomer).
Method: As utilized for these experiments, the in situ brain perfusion technique employed the intact rat brain to (i) determine drug permeation across the BBB under normal physiological conditions, and (ii) to study transport mechanisms such as passive diffusion verses carrier mediated transport.
Perfusion was performed using the single time-point method. Briefly, the perfusion fluid (perfusate) containing the test compound(s) was infused into rats via the left external carotid artery at a constant rate by an infusion pump (20 mL/min). Perfusion flow rate was set to completely take over fluid flow to the brain at normal physiologic pressure (80-120 mm Hg). The duration of the perfusion was 30 seconds. Immediately following the perfusion, the brain vasculature was perfused for an additional 30 seconds with drug-free perfusate to remove residual drug. The pump was turned off and the brain was then immediately removed from the skull. Left-brain samples from each rat were first weighed and then homogenized using a Polytron homogenizer. Four (4) mL of 20% methanol was added to each rat brain for homogenization. After homogenization, the total volume of homogenate was measured and recorded.
A measured amount of the homogenate was diluted with organic solvent and subsequently centrifuged. The supernatant was removed, evaporated in a stream of nitrogen and reconstituted and analyzed by LC/MS/MS. Quantification of drug concentrations in brain homogenate was performed against calibration curves generated by spiking the drugs into blank (i.e. drug-free) brain homogenate. Analysis of the drug concentrations in brain homogenates was carried out in triplicate, and the values were used to calculate the brain uptake rate in pmole per gram of rat brain per second of perfusion.
All the data was normalized to a 5 μM dosing solution at 20 mL/min perfusion rate for 30 sec.

Structures are written as SMILES. Where two headings read alike, the source gives them in different places.

Sequence of Mu-opiate (P35372 whole entry): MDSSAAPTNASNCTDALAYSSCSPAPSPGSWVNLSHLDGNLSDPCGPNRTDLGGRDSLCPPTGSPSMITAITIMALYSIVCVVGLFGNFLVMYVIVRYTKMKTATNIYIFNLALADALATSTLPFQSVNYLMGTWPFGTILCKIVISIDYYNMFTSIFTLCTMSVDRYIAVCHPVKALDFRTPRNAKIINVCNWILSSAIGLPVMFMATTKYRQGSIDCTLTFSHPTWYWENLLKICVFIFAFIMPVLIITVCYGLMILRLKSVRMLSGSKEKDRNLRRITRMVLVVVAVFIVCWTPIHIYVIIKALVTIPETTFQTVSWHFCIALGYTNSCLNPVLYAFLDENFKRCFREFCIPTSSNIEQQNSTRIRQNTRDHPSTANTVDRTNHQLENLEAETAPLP
Sequence of μ-Opiate Receptors (P35372 whole entry): as above

Consider `C=CCN1CC[C@]23c4c5ccc(O)c4O[C@H]2[C@@H](OCCOCCOCCOCCOCCOCCOCCOCCOCCOC)CC[C@@]3(O)[C@H]1C5` (single isomer, unassigned) [α isomer of PEG9-Nal], for which, in data set [1], the Solubility entry was “soluble”. The IC50 in data set [2] (naloxone series of compounds) turned out to be 64.4 nM.

The compound `C=CCN1CCC23c4c5ccc(O)c4OC2C(O)CCC3(O)C1C5` (single isomer, unassigned) [β-6-naloxol, reference compound] registered an EC50 in data set [3] (μ-opiate receptors, in-vitro) of 10.8 nM.

As for `C=CCN1CC[C@]23c4c5ccc(O)c4O[C@H]2[C@@H](OCCOCCOCCOC)CC[C@@]3(O)[C@H]1C5` [α-PEG3-Nal, α-6-CH3—(OCH2CH2)3—O-naloxol], the “Bioactivity relative to the parent compound” value in data set [3] (from EC50 values) is reported as “about 30%”. The same compound yielded an EC50 in data set [3] (μ-opiate receptors, in-vitro) of 7.3 nM. Moreover, the “Mean Plasma Concentration ± SD, 1 hr” value in data set [4] is 37.28 ± 4.99 ng/mL. For the same compound, the “Mean Plasma Concentration ± SD, 2 hr” value in data set [4] was determined as 14.92 ± 5.27 ng/mL. Also, the “Percentage of Active Remaining After Incubation with Liver Microsomes” value runs as follows: (0 min) 100.0%; (20 min) 64.8%; (40 min) 51.7%; (60 min) 45.7%. In addition, the Solubility entry in data set [1] was “soluble”. Also, in data set [2], the IC50 was 7.3 nM.

On to `C=CCN1CC[C@]23c4c5ccc(O)c4O[C@H]2[C@H](OCCOCCOCCOCCOCCOC)CC[C@@]3(O)[C@H]1C5` [α-PEG5-Nal, α,β-6-CH3—(OCH2CH2)5—O-naloxol], for which the EC50 in data set [3] was found to be 31.5 nM. In data set [4], the “Mean Plasma Concentration ± SD, 1 hr” value came to 27.37 ± 10.82 ng/mL. Further, in data set [4], the “Mean Plasma Concentration ± SD, 2 hr” value is 15.38 ± 6.65 ng/mL. In addition, the “Percentage of Active Remaining After Incubation with Liver Microsomes” value was 100.0% (rat, microsomes, 0 h); 84.1% (rat, microsomes, 20 min); 75.6% (rat, microsomes, 40 min); 69.2% (rat, microsomes, 1 h). Also, the Solubility entry in data set [1] was “soluble”. In data set [2], the IC50 is 31.5 nM.

The compound `C=CCN1CC[C@]23c4c5ccc(O)c4O[C@H]2[C@H](OCCOCCOCCOCCOCCOC)CC[C@@]3(O)[C@H]1C5` [β-PEG5-Nal, α,β-6-CH3—(OCH2CH2)5—O-naloxol] came in with an EC50 in data set [3] (μ-opiate receptors, in-vitro) of 43.3 nM. Further, in data set [4], the “Mean Plasma Concentration ± SD, 1 hr” value was 69.34 ± 15.03 ng/mL and the “Mean Plasma Concentration ± SD, 2 hr” value is listed as 36.92 ± 15.84 ng/mL. Moreover, in data set [1], the Solubility entry is given as “soluble”. In addition, the IC50 in data set [2] (naloxone series of compounds) turned out to be 43.3 nM.

As for `C=CCN1CC[C@]23c4c5ccc(O)c4O[C@H]2[C@H](OCCOCCOCCOCCOCCOCCOCCOC)CC[C@@]3(O)[C@H]1C5` [α-PEG7-Nal, α,β-6-CH3—(OCH2CH2)7—O-naloxol], the “Normalized Brain Uptake Rate (Mean ± SD)” value in data set [5] is recorded as 0.94 ± 0.32 pmole/gm brain/sec. Moreover, the “Mean Plasma Concentration ± SD, 1 hr” value in data set [4] worked out at 40.08 ± 16.61 ng/mL. In data set [4], the “Mean Plasma Concentration ± SD, 2 hr” value is 39.51 ± 9.57 ng/mL. Also, the “Percentage of Active Remaining After Incubation with Liver Microsomes” value (rat, microsomes, 0 h) came to 100.0%; the “Percentage of Active Remaining After Incubation with Liver Microsomes” value (rat, microsomes, 20 min) turned out to be 87.4%; the “Percentage of Active Remaining After Incubation with Liver Microsomes” value (rat, microsomes, 40 min) is recorded as 81.6%; the “Percentage of Active Remaining After Incubation with Liver Microsomes” value (rat, microsomes, 1 h) is recorded as 76.9%. Moreover, in data set [1], the Solubility result was “soluble”.

For the compound `C=CCN1CCC23c4c5ccc(O)c4OC2C(O)CCC3(O)C1C5` (single isomer, unassigned) [α-6-naloxol, reference compound], the response in data set [3] (μ-opiate receptors, in-vitro) was half-maximal at 2 nM (EC50).
